Test results as given in patent publication US4145554A, “3-Nitropyrazole derivatives” (Eli Lilly and Company, priority 1977, dated 1979).
≈ marks a conversion by molar mass, not a printed value.

How the values were obtained:
[1] = system: Salmonella typhimurium 1503; assay: in vitro tube dilution test (MIC); assay type: cell-based; conditions: Salmonella enterica, Salmonella typhimurium 1503 (poult intestine)
P. multocida = assay: Mice infected with P. multocida, compound injected subcutaneously; assay type: in vivo; conditions: 2.5 mg./kg. subcutaneous
Protocol: A second test was conducted in much the same way, except that the 3-nitropyrazole was injected to the treated mice subcutaneously at the same time they were infected with the P. multocida culture.

Mycoplasma synoviae = assay: in vitro tube dilution test (MIC); assay type: cell-based; conditions: Mycoplasmopsis synoviae, Mycoplasma synoviae
Procedure, shortened: (§1)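 Standard tube dilution test; MIC reported as micrograms of compound per milliliter.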

Escherichia coli [2] = assay: in vitro tube dilution test (MIC); assay type: cell-based; conditions: tube dilution, read-out: MIC
Procedure, shortened: as §1

Mycoplasma gallisepticum = assay: in vitro tube dilution test (MIC); assay type: cell-based; conditions: Mycoplasmoides gallisepticum; Mycoplasma galliseptioum, tube dilution; read-out: MIC
Procedure, shortened: as §1

Mycoplasma hyopneumoniae = assay: in vitro tube dilution test (MIC); assay type: cell-based; conditions: Mesomycoplasma hyopneumoniae
Streptococcus pyogenes = assay: Tests in mice, Streptococcus pyogenes infection; assay type: in vivo; conditions: S. pyogenes
Protocol: Groups of laboratory mice were inoculatd with E. coli or with Streptococcus pyogenes. The 3-nitropyrazoles were administered in two different modes to the infected mice. In one group of tests, the compound was administered in two subcutaneous doses of 83 mg./kg. each, given 1 and 5 hours after the mice were inoculated with the organism. The mice were observed, and the results reported below as the number of days the treated mice survived the challenge.
In the other group of tests, the dose of each compound which allowed 50 percent of the treated mice to survive the challenge was determined. Again, the compound was administered in subcutane divided doses, 1 and 5 hours post-inoculation.

Clostridium perfringens = assay: microbe, parasite or virus in culture; assay type: cell-based
[3] = Growth promotion in swine; assay type: in vivo; conditions: 300 gm./ton; 28 days
Description: The same 3-nitropyrazole tested above was used in a growth promotion test in swine. The pigs weighed 25-30 lbs. when the test began, and were housed and fed according to good commercial practice for 28 days. The pigs in the treated group received feed containing 300 gm. per ton of the 3-nitropyrazole compound.

Streptococcus sp. = assay: in vitro tube dilution test (MIC); assay type: cell-based
Hemophilus gallinarum = assay: in vitro tube dilution test (MIC); assay type: cell-based
Salmonella sp. = assay: in vitro tube dilution test (MIC); assay type: cell-based
Description: Our compound, 1-(2-hydroxyethyl)-3-nitro-4-pyrazolecarboxamide, has been extensively tested in vitro to determine the range of microorganisms against which it is active. The table of data below reports the minimum inhibitory concentration (MIC) at which the compound is effective in controlling a variety of microorganisms in a standard tube dilution test system. The MIC is reported as micrograms of compound per milliliter.

Salmonella pullorum 9-25 = assay: in vitro tube dilution test (MIC); assay type: cell-based; conditions: Salmonella enterica; Salmonella pullorum 9-25, tube dilution
[4] = system: Pasteurella multocida and P. hemolytica; assay: Pasteurella pneumonia in calves; assay type: in vivo
Pasteurella hemolytica = assay: in vitro tube dilution test (MIC); assay type: cell-based
Vibrio coli = assay: in vitro tube dilution test (MIC); assay type: cell-based; conditions: Campylobacter coli
Salmonella typhosa = assay: agar dilution technique (MIC); conditions: Salmonella enterica
group E streptococci = assay: Lymphadenitis in swine; assay type: in vivo; conditions: 200 gm. per ton of feed; 7 weeks; 12 treated swine
Protocol: The same 3-nitropyrazole tested in the example immediately above was also tested to determine its ability to prevent lymphadenitis, or jowl abscess, infections in swine. One group of 12 young swine was treated with the 3-nitropyrazole compound as a feed additive at the rate of 200 gm. per ton of feed, and another group of 12 swine was held as infected controls. Administration of the 3-nitropyrazole began shortly before the administration of the challenge, and continued throughout the 7-week test. All of the swine were challenged with a culture of group E streptococci isolated from jowl abscesses of an infected pig. The challenge organisms were administered as a dispersion in the swine's drinking water. After 7 weeks, all of the swine were slaughtered, and their cervical areas were examined for the presence of the abscesses caused by lymphadenitis infections. […] Abscesses were found in 9 of the 12 infected control animals.

Escherichia coli [5] = assay: agar dilution technique (MIC); assay type: cell-based
[6] = system: Bordetella bronchiseptica; assay: in vitro tube dilution test (MIC); assay type: cell-based
Mima polymorpha = assay: agar dilution technique (MIC); assay type: cell-based
Treponema hyodysenteriae = assay: in vitro tube dilution test (MIC); assay type: cell-based; conditions: Brachyspira hyodysenteriae
H. meleagridis = assay: Blackhead in poultry, turkeys; assay type: in vivo
Protocol: One- to three-week-old chicks and turkey poults were obtained from homogeneous source flocks and allocated into treatment groups. Some groups were held as infected, untreated controls, and other groups were treated with 3-nitropyrazoles by administering the compounds in the birds' feed. Various concentrations of the pyrazoles were administered to determine the least concentration which protected the birds. A few days after the administration of medicated feed began, all of the birds were challenged by rectally administering a suspension of at least 5,000 H. meleagridis protozoa per chick. The challenge organisms had been originally obtained from infected chickens, and were grown in vitro to provide a supply of organisms for testing.
The birds were held for about seven days after the challenge was administered, during which time the administration of pyrazole-medicated feed was continued. Then all of the chicks, including the untreated, infected controls, were sacrificed and necropsied. The cecum and the liver of each bird were examined for characteristic H. meleagridis lesions.
For each compound, the lowest feed concentration which gave an active response is indicated. While feed consumption data were not taken during the tests, the birds ate at such a rate that a feed concentration of 0.02 percent is equivalent to a treatment rate of about 10 mg./kg./day.

E. amylovora = assay: Fire blight of field-grown pear trees, natural and induced infections; assay type: in vivo; conditions: 100 to 800 ppm. aqueous dispersions
Protocol: Our compound, 1-(2-hydroxyethyl)-3-nitro-4-pyrazolecarboxamide, was also tested against natural and induced infections of E. amylovora on field-grown pear trees.

[7] = 8 days after challenge, 25 mg. per kg. intramuscular

In the case of `NC(=O)c1cn(CCO)nc1[N+](=O)[O-]` [Compound 32, 1-(2-hydroxyethyl)-3-nitro-4-pyrazolecarboxamide], the MIC [1] is reported as < 1.56 µg/mL, the Survival (P. multocida) is reported as 8/10 and the MIC (Mycoplasma synoviae) is reported as 50 µg/mL (≈ 250 µM). It also gave an MIC (Escherichia coli [2]) of 3.12 µg/mL (≈ 15.6 µM), an MIC (Mycoplasma gallisepticum) of 0.78 µg/mL (≈ 3.9 µM) and an MIC (Mycoplasma hyopneumoniae) of 50 µg/mL (≈ 250 µM). For the same molecule, the “Days Survived” value (Streptococcus pyogenes; two subcutaneous doses of 83 mg./kg., 1 and 5 hours) was 5.0 days, the ED50 (Streptococcus pyogenes; Streptococcus pyogenes, sc, subcutaneous, 1 and 5 hours post-inoculation) was 53.7 mg/kg and the MIC (Clostridium perfringens) was 25 to 50 µg/mL (≈ 125 to 250 µM). The “Average Daily Feed Consumption” value [3] was 2.00 lbs, the “Average Daily Gain” value [3] was 1.01 lbs and the Feed/Gain [3] was 1.96. It also gave an MIC (Streptococcus sp.) of 25 µg/mL (≈ 125 µM), an MIC (Hemophilus gallinarum) of 0.78 µg/mL (≈ 3.9 µM) and an MIC (Salmonella sp.) of 3.12 µg/mL (≈ 15.6 µM). For the same molecule, the MIC (Salmonella pullorum 9-25) was < 1.56 µg/mL, the “pasteurellae identified in lungs” value [4, 7] was “No pasteurellae were identified in the lungs of any of the three animals” and the “physical examination of lungs” value [4, 7] was “minor consolidation or emphysema in areas of the lungs”. For the same molecule, the “extent of pasteurella infection” value ([4]; indicated by temperatures, 25 mg. per kg. intramuscular) was “only a very mild pasteurella infection”, the “Average Temperature” value ([4]; post-challenge, 25 mg. per kg. intramuscular daily for five days) was 102.7 ° F and the MIC (Pasteurella hemolytica) was < 1.56 µg/mL. The MIC (Vibrio coli) was 6.25 µg/mL (≈ 31.2 µM), the MIC (Salmonella typhosa) was 2 µg/mL (≈ 9.99 µM) and the “abscesses in cervical areas” value (group E streptococci) was “No abscesses were found in any of the treated swine”. It also gave an MIC (Escherichia coli [5]) of 8 µg/mL (≈ 40 µM), an MIC [6] of 25 µg/mL (≈ 125 µM) and an MIC (Mima polymorpha) of 2 µg/mL (≈ 9.99 µM). The MIC (Treponema hyodysenteriae) was 3.12 µg/mL (≈ 15.6 µM), the “Active Level (lowest feed concentration which gave an active response)” value (H. meleagridis) was “.02%” and the “control of fire blight on field-grown pear trees” value (E. amylovora) was “controlled fire blight on the pear trees”.
